Experimental data taken from patent publication US4803167A, “Monoclonal antidigoxtin antibodies” (The General Hospital Corporation, priority 1982, dated 1989).
“And” between values parts separate entries of the source, which are not always exact repeats. Equal entries are not always repeated. Where two headings read alike, the source gives them in different places.

What was measured:
[1] = test system: monoclonal anti-digoxin antibody Dig 35-20; assay: Specificity determination, inhibition of [3H]digoxin binding in dextran charcoal RIA; parameters: species or system mouse (A/J); conditions: inhibition of antibody binding to [3H]digoxin
Description: (§1) The specificity of each antidigoxin antibody for related cardiac glycosides was assessed by the inhibition of binding of antibody in the dextran charcoal radioimmunoassay Smith (1972), supra. To a constant amount of H^3 -digoxin (1.5 ng) in 1 ml of buffer is added different amounts ([…]) of various cardiac glycosides: digoxin, digitoxin, digitoxigenin, digoxigenin, acetyl-strophanthidin, ouabain, deslanoside, and endogenous steroids such as chloresterol, cortisol, androsterone, 17-[beta]-estradiol, progesterone, and testosterone. After 5 minutes, a constant amount of anti-digoxin antibody was added and the assay was continued as described above. Comparison among different antidigoxin antibodies with respect to their fine specificity was made by determining the amount of cardiac glycoside required to achieve 50% inhibition relative to that required for cold digoxin.
(§2) Specificity of monoclonal antibody binding site for related cardiac glycosides was examined by means of hapten inhibition experiments in which the binding of monoclonal antibody to H^3 -digoxin was inhibited by cold digoxin and related cardiac glycosides.

[2] = test system: monoclonal anti-digoxin antibody Dig 26-20; assay: as above; parameters: species or system mouse (A/J); conditions: inhibition of antibody binding to [3H]digoxin
Description: as §1, §2

[3] = test system: monoclonal anti-digoxin antibody Dig 26-10; assay: as above; parameters: species or system mouse (A/J); conditions: inhibition of antibody binding to [3H]digoxin
Description: as §1, §2

[4] = test system: monoclonal anti-digoxin antibody Dig 26-30; assay: as above; parameters: species or system mouse (A/J); conditions: inhibition of antibody binding to [3H]digoxin
Description: as §1, §2

[5] = test system: monoclonal anti-digoxin antibody Dig 25-54; assay: as above; parameters: species or system mouse (A/J); conditions: inhibition of antibody binding to [3H]digoxin
Description: as §1, §2

[6] = test system: monoclonal anti-digoxin antibody Dig 26-40; assay: as above; parameters: species or system mouse (A/J); conditions: inhibition of antibody binding to [3H]digoxin
Description: as §1, §2

[7] = target: Fab fragment of monoclonal anti-digoxin antibody Dig 26-10; assay: Affinity determination, [3H]digoxin dextran-coated charcoal RIA; conditions: read-out: Affinity Constant K0 for digoxin, Fab of Dig 26-10, 60 min
[8] = test system: monoclonal anti-digoxin antibody Dig 35-20 (IgG1); assay: as above; assay type: binding, mouse (A/J); conditions: for Kd: 60 min, read-out: Affinity Constant K0 for digoxin (converted)
Description: (§3) Using the dextran coated charcoal binding method for separation of bound antibody from free H^3 -digoxin (Smith, J. Clin. Invest. 51:1583 (1972)), affinities (Ko) for monoclonal anti-digoxin antibodies were determined for antibody present in culture media and in preparations purified from ascites. Data were plotted according to a modified Sips equation (Nisonoff et al, J. Immunol. 80:417 (1958)), as described earlier herein. Typical of single component systems, a linear plot was obtained for all hybridomas analyzed. Correlation coefficients (r) varied from 0.989 to 0.999 for the monoclonal antibodies analyzed by this method. As anticipated, no significant difference was found for affinity constants determined for antibody present in culture media and in preparations following purification from ascites fluid (Table III).

[9] = test system: monoclonal anti-digoxin antibody Dig 25-54 (IgG1); assay: as above; assay type: binding, mouse (A/J); conditions: for Kd: 60 min, read-out: Affinity Constant K0 for digoxin (converted)
Description: as §3

[10] = target: monoclonal anti-digoxin antibody Dig 26-20 (IgG2a); assay: as above; assay type: binding, mouse (A/J); conditions: 60 min, read-out: Affinity Constant K0 for digoxin (converted)
Description: as §3

[11] = target: monoclonal anti-digoxin antibody Dig 26-40 (IgG2a); assay: as above; assay type: binding, mouse (A/J); conditions: 60 min, read-out: Affinity Constant K0 for digoxin (converted)
Description: as §3

[12] = target: monoclonal anti-digoxin antibody Dig 26-10 (IgG2a); assay: as above; assay type: binding, mouse (A/J); conditions: for Kd: 60 min, read-out: Affinity Constant K0 for digoxin (converted)
Description: as §3

[13] = target: monoclonal anti-digoxin antibody Dig 26-30 (IgG2a); assay: as above; assay type: binding, mouse (A/J); conditions: 60 min, read-out: Affinity Constant K0 for digoxin (converted)
Description: as §3

[14] = test system: heterogeneous anti-digoxin antibody, Sheep Antisera; assay: as above; assay type: binding; conditions: antibody source: serum; 60 min; read-out: Affinity Constant K0 for digoxin (converted)
Description: (§4) Antisera specific for digoxin was prepared in sheep as previously described by Curd et al, Proc. Nat. Acad. Sci. 65: 2401 (1971). High affinity antidigoxin sheep antisera was used in the clinical RIA for digoxin (described below).

[15] = test system: Sheep Anti-Dig Serum (heterogeneous anti-digoxin antiserum); assay: Specificity determination, inhibition of [3H]digoxin binding in dextran charcoal RIA; conditions: inhibition of antibody binding to [3H]digoxin
Description: as §4, §1, §2

[16] = target: monoclonal anti-digoxin antibody Dig 26-10; assay: Affinity constant by equilibrium dialysis; assay type: binding, mouse (A/J); conditions: confirmed by equilibrium dialysis
From the text: The affinity constant determined for Dig 26-10 (approximately 10^9 M^-1) was confirmed by equilibrium dialysis. […] The Ko determined for Dig 35-20 was also high, 1.3-3.4×10^9 M^-1.

[17] = target: heterogeneous anti-digoxin antibody, Pooled mouse antibody; assay: Affinity determination, [3H]digoxin dextran-coated charcoal RIA; assay type: binding, mouse (A/J); conditions: antibody source: serum; 60 min; read-out: Affinity Constant K0 for digoxin (converted)
Description: (§5) A pool of mouse antidigoxin antibody was prepared from immune sera as follows. A/J mice immunized with Dig-HSA as described above, were bled from the tail on the 3rd or 4th week following intraperitoneal injection of antigen. Their sera were pooled and the antidigoxin antibodies were purified from the sera by affinity chromatography as described below. This antibody preparation was used as a standard antidigoxin reagent in the PVC-plate RIA (described below).

[18] = test system: heterogeneous anti-digoxin antibody, Pooled mouse antisera; assay: as above; assay type: binding, mouse (A/J); conditions: antibody source: serum; 60 min; read-out: Affinity Constant K0 for digoxin (converted)
Description: as §5

## C[C@H]1O[C@@H](O[C@H]2[C@@H](O)C[C@H](O[C@H]3[C@@H](O)C[C@H](O[C@H]4CC[C@@]5(C)[C@H](CC[C@@H]6[C@@H]5C[C@@H](O)[C@]5(C)[C@@H](C7=CC(=O)OC7)CC[C@]65O)C4)O[C@@H]3C)O[C@@H]2C)C[C@H](O)[C@@H]1O [Digoxin]
[1]
  amount of inhibitor required to give 50% inhibition relative to the amount of digoxin which gave 50% inhibition: 1.0
[2]
  amount of inhibitor required to give 50% inhibition relative to the amount of digoxin which gave 50% inhibition: 1.0
[3]
  amount of inhibitor required to give 50% inhibition relative to the amount of digoxin which gave 50% inhibition: 1.0
[4]
  amount of inhibitor required to give 50% inhibition relative to the amount of digoxin which gave 50% inhibition: 1.0
[5]
  amount of inhibitor required to give 50% inhibition relative to the amount of digoxin which gave 50% inhibition: 1.0
[6]
  amount of inhibitor required to give 50% inhibition relative to the amount of digoxin which gave 50% inhibition: 1.0
[7]
  Kd: 0.833 nM and 1 nM
[8]
  Ko for digoxin: 1.3-3.4×10^9 M^-1
[8]; antibody purified from ascites
  Kd: 0.769 nM
[8]; antibody source: culture media
  Kd: 0.526 nM
[9]
  Ko for digoxin: 3.5 to 5.2 ×10^8 M^-1
  apparent affinity Ko for digoxin: < 10^8 M^-1
[9]; antibody purified from ascites
  Kd: 1.92 nM
[9]; antibody source: culture media
  Kd: 3.85 nM
[10]; antibody purified from ascites
  Kd: 0.294 nM
[10]; antibody source: culture media
  Kd: 0.714 nM
[11]; antibody purified from ascites
  Kd: 0.385 nM
[11]; antibody source: culture media
  Kd: 0.227 nM
[12]; antibody purified from ascites
  Kd: 0.213 nM
[12]; antibody source: culture media
  Kd: 0.118 nM
[12]; intact antibody
  Ko for digoxin, average value for the intact antibody: < 5×10^9
[13]; antibody purified from ascites
  Kd: 0.172 nM
[13]; antibody source: culture media
  Kd: 0.256 nM
[14]
  Kd: 0.0833 nM
[15]
  amount of inhibitor required to give 50% inhibition relative to the amount of digoxin which gave 50% inhibition: 1.0
[16]
  Kd: ~1 nM
[17]
  Kd: 0.286 nM
[18]
  Kd: 0.323 nM
